# Assay results taken from paper PMC7156724, “Potent BRD4 inhibitor suppresses cancer cell-macrophage interaction” (Nature Communications, 2020).
# Several values for one entry are separate records, joined by “and”; a condition that tells them apart may be missing. Equal values may be shown once. Read-outs that look alike come from different tables or passages of the source.
# Columns and labels:
# [1] = In vivo pharmacokinetics study, mouse
# Description: (§1) 4–6 weeks old female BALB/c nude mice were used for most experiments, with the exception of 6–8 weeks old female C57BL/6 mice were used for B16F10 experiments, and 6–8 weeks old male BALB/c nude mice and SD rats were used for pharmacokinetic experiments. All animals were purchased from Shanghai SIPPR-Bk Lab Animal Co., Ltd. All animals were housed under a regimen of 12 h light/12 h dark cycles and specific pathogen-free conditions. 5×10^6 NCI-H526, ES-2, MDA-MB231, A2780, A375, B16F10, and TMD-8 cells (0.1 ml) were injected subcutaneously into female nude mice. The melanoma patient-derived xenograft model was derived from a human melanoma sample (BRAF, NARS and NF1 wild type, and p53 mutant) removed from a patient in Xiangya Hospital. Surgically removed tumor fragments were implanted subcutaneously into female NSG mice. When the tumors grew to ~1000 mm^3, they were harvested and cryopreserved or immediately re-implanted for expansion or experiments. Mouse body weight and tumor sizes were measured every 3 days. Once the tumors grew to 150–200 mm^3, mice were treated with the compounds as described in the Figures. 1 × 10^6 A2780 cells (1 ml) were injected into the abdominal cavity of nude mice. Ascitic volume and tumor weight were measured by an electronic balance. All the procedures were evaluated and approved by the Institutional Animal Care and Use Committee of Central South University and Yale University.
# Supplementary Figure 7. Pharmacokinetic profile of NHWD-870 using mouse and rat models.
# (a,b) Plasma concentrations of NHWD-870 in healthy (a) mouse and (b) rat after intravenous (IV, 1.75 mg/kg for mouse and 1 mg/kg for rat) and oral (PO, 5 mg/kg) administration. Values shown on the right panels are mean ± SEM from 3 different animals. (c,d) Mean concentrations of NHWD-870 in the lungs (c) and tumors (d) of H526 xenograft model at the indicated hours after oral administration of 3 mg/kg NHWD-870 and BMS-98615821 on day 21. These mice were administrated the indicated drug daily for 21 days. Data are represented as mean ± SEM of 3 independent experiments. Source data are provided as a Source Data file. […]
# 9. In vivo pharmacokinetics study. Mouse and SD rat models were used to evaluate pharmacokinetic property of NHWD-870. NHWD-870 was administrated […]
# Concentration of drugs in plasma, lung and tumor tissues were measured for the indicated time. […]
# [2] = test system: A2780 ovarian tumors; test: A2780 ovarian subcutaneous tumor growth; type: in vivo, mouse; conditions: for Tumor volume: Fig.3b a2780, 3mg/kg p.o. QD x 15D, n=5, individual animals, in mm³ (unit assumed)
# From the text: PO, oral administration; QD, once daily; BID, twice daily. b–d Tumor growth curves for A2780 ovarian tumor (n = 5) (b), TMD8 large B cell lymphoma (n = 6) (c), and B16F10 melanoma (n = 5) (d) bearing mice treated with the indicated compounds once daily for 11-21 days. e, f Tumor growth curves for A375 melanoma (n = 6) (e), and patient-derived xenograft (PDX) of melanoma (n = 5) (f) bearing mice treated with the indicated compounds once daily (5 days on, 2 days off) for 21 days. For d–f, NHWD-870 used is NHWD-870-HCl synthesized using Suzuki coupling route. Data are presented as mean ± SEM in (a, b, d, f) and mean + SEM in (c, e). p values were calculated using two-tailed, unpaired t tests. *p < 0.05; **p < 0.01; ***p < 0.001. Source data are provided as a Source Data file.
# as §1
# [3] = target: T1, human Ether-à-go-go related gene (hERG) channel (Homo sapiens, UniProt Q12809); test: hERG channel assay, manual patch-clamp; type: cell-based; conditions: HEK293 cells stably transfected with hERG, read-out: IC50, inhibition of hERG channel
# T1 construct: host or cells: HEK293, stably transfected, expression induced with doxycycline
# T1 sequence (Q12809 whole entry): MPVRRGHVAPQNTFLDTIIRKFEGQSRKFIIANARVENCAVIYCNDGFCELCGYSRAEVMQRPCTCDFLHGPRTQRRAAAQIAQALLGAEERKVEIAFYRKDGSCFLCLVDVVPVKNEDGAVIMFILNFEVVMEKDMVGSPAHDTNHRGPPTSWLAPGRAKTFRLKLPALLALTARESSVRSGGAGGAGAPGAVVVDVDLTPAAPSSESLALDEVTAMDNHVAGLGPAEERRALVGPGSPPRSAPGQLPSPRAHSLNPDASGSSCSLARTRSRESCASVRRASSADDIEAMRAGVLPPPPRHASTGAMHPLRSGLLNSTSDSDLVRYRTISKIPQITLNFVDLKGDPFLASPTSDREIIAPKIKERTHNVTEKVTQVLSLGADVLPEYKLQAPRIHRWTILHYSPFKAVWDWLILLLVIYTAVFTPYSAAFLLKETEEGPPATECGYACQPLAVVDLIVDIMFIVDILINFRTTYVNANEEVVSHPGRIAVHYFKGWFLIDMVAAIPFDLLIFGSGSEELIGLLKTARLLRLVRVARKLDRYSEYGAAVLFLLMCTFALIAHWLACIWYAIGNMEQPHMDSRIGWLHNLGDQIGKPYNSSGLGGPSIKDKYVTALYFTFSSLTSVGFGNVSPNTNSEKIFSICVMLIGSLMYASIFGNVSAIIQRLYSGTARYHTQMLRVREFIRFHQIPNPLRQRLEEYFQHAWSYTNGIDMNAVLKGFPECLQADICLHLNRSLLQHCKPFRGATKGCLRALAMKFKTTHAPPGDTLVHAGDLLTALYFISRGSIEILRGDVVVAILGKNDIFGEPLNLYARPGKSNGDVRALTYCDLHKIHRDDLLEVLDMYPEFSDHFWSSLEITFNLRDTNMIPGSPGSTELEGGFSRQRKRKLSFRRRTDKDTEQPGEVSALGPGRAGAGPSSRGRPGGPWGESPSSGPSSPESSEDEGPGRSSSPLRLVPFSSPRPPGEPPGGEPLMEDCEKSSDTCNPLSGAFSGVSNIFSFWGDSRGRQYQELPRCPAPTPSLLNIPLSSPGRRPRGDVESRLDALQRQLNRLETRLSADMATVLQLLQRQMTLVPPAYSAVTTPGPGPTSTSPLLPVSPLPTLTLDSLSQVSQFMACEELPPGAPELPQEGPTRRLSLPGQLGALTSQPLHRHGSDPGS
# Description: calculated concentration on the dialysate side of the membrane; T0 = To t a l compound concentration as determined before dialysis. Good plasma stability should have a value of not less than 80% bound, and the recovery rate should be […]
# 9. In vivo pharmacokinetics study. Mouse and SD rat models were used to evaluate pharmacokinetic property of NHWD-870. NHWD-870 was administrated by either intravenous injection (IV, 1.75 mg/kg for mouse and 1 mg/kg for rat) or oral gavage (PO, 5 mg/kg) into mice or rats. Concentration of drugs in plasma, lung and tumor tissues were measured for the indicated time.
# 10. hERG channel assay. The potential inhibitory effect of NHWD-870 on human Ether-à-go-go related gene (hERG) channel was evaluated by manual patch-clamp system using the protocols described below. HEK293 cell line stably
# [4] = male, BALB/c nude, plasma, IV 1.75 mg/kg
# [5] = male, BALB/c nude, plasma, PO 5 mg/kg
smiles,measurement,setting,value
Cc1nnn(C)c1-c1cnc2c3c4cnn(C)c4ccc3n([C@H](c3ccccc3)C3CCOCC3)c2c1 [NHWD-870],AUCExtrap,[1]; IV 1.75 mg/kg,3.87±2.125%
same,T1/2,"[1]; IV 1.75 mg/kg, 1.75 mg/kg",1.7 h
same,Plasma concentration,"[1]; IV 1.75 mg/kg, 5 min, individual mice, 1.75 mg/kg",547 ng/mL and 518 ng/mL
same,Plasma concentration,"[1]; IV 1.75 mg/kg, 0.25 h, individual mice, 1.75 mg/kg",431 ng/mL and 362 ng/mL
same,Plasma concentration,"[1]; IV 1.75 mg/kg, 0.5 h, individual mice, 1.75 mg/kg",399 ng/mL and 272 ng/mL
same,Plasma concentration,"[1]; IV 1.75 mg/kg, 1 h, individual mice, 1.75 mg/kg",295 ng/mL and 262 ng/mL
same,Plasma concentration,"[1]; IV 1.75 mg/kg, 2 h, individual mice, 1.75 mg/kg",281 ng/mL and 264 ng/mL
same,Plasma concentration,"[1]; IV 1.75 mg/kg, 4 h, individual mice, 1.75 mg/kg",215 ng/mL and 197 ng/mL
same,Plasma concentration,"[1]; IV 1.75 mg/kg, 8 h, individual mice, 1.75 mg/kg",41.2 ng/mL and 70.8 ng/mL
same,Plasma concentration,"[1]; IV 1.75 mg/kg, 24 h, individual mice, 1.75 mg/kg",0.876 ng/mL and 1.36 ng/mL
same,AUCExtrap,[1]; PO 5 mg/kg,3.04±0.685%
same,"F (%), oral bioavailability","[1]; PO 5 mg/kg, 5 mg/kg",70%
same,Plasma concentration,"[1]; PO 5 mg/kg, 0.25 h, individual mice, 5 mg/kg",515 ng/mL and 150 ng/mL and 133 ng/mL
same,Plasma concentration,"[1]; PO 5 mg/kg, 0.5 h, individual mice, 5 mg/kg",630 ng/mL and 247 ng/mL and 269 ng/mL
same,Plasma concentration,"[1]; PO 5 mg/kg, 1 h, individual mice, 5 mg/kg",688 ng/mL and 321 ng/mL and 337 ng/mL
same,Plasma concentration,"[1]; PO 5 mg/kg, 2 h, individual mice, 5 mg/kg",593 ng/mL and 414 ng/mL
same,Plasma concentration,"[1]; PO 5 mg/kg, 4 h, individual mice, 5 mg/kg",308 ng/mL and 354 ng/mL
same,Plasma concentration,"[1]; PO 5 mg/kg, 6 h, individual mice, 5 mg/kg",62.6 ng/mL and 255 ng/mL and 189 ng/mL
same,Plasma concentration,"[1]; PO 5 mg/kg, 8 h, individual mice, 5 mg/kg",37.2 ng/mL and 209 ng/mL and 111 ng/mL
same,Plasma concentration,"[1]; PO 5 mg/kg, 24 h, individual mice, 5 mg/kg",0.953 ng/mL
same,AUC(0-inf),[1]; [4],993 ± 280 ng·h/mL
same,AUC(0-t),[1]; [4],939 ± 242 ng·h/mL
same,C0,[1]; [4],630 ± 70.5 ng/mL
same,MRT inf,[1]; [4],2.22 ± 0.42 h
same,clearance,[1]; [4],35 ± 7.45 mL/min/kg
same,Vd,"[1]; male, BALB/c nude, plasma, IV 1.75 mg/kg, read-out: Vdss",4.17 ± 0.42 L/kg
same,AUC(0-inf),[1]; [5],2010 ± 165 ng·h/mL
same,AUC(0-t),[1]; [5],1950 ± 172 ng·h/mL
same,Cmax,[1]; [5],467 ± 74 ng/mL
same,MRT inf,[1]; [5],3.16 ± 0.24 h
same,Tmax,[1]; [5],1.33 ± 0.29 h
same,concentration at 24 h,"[1]; male, BALB/c nude, plasma, PO 5 mg/kg, 24 h, individual mice, read-out: Plasma concentration",1.94 ng/mL
same,half-life,"[1]; male, BALB/c nude, plasma, iv, 1.75 mg/kg, IV 1.75 mg/kg",104 ± 19.5 min
same,concentration at 5 min,"[1]; male, BALB/c nude, plasma, iv, 1.75 mg/kg, IV 1.75 mg/kg, 5 min, individual mice, read-out: Plasma concentration",614 ng/mL
same,concentration at 5 min,"[1]; male, BALB/c nude, plasma, iv, 1.75 mg/kg, IV 1.75 mg/kg, 5 min, mean of 3 mice, read-out: Plasma concentration, Mean",560 ng/mL
same,concentration at 0.25 h,"[1]; male, BALB/c nude, plasma, iv, 1.75 mg/kg, IV 1.75 mg/kg, 0.25 h, individual mice, read-out: Plasma concentration",491 ng/mL
same,concentration at 0.25 h,"[1]; male, BALB/c nude, plasma, iv, 1.75 mg/kg, IV 1.75 mg/kg, 0.25 h, mean of 3 mice, read-out: Plasma concentration, Mean",428 ng/mL
same,concentration at 0.5 h,"[1]; male, BALB/c nude, plasma, iv, 1.75 mg/kg, IV 1.75 mg/kg, 0.5 h, individual mice, read-out: Plasma concentration",388 ng/mL
same,concentration at 0.5 h,"[1]; male, BALB/c nude, plasma, iv, 1.75 mg/kg, IV 1.75 mg/kg, 0.5 h, mean of 3 mice, read-out: Plasma concentration, Mean",353 ng/mL
same,concentration at 1 h,"[1]; male, BALB/c nude, plasma, iv, 1.75 mg/kg, IV 1.75 mg/kg, 1 h, individual mice, read-out: Plasma concentration",417 ng/mL
same,concentration at 1 h,"[1]; male, BALB/c nude, plasma, iv, 1.75 mg/kg, IV 1.75 mg/kg, 1 h, mean of 3 mice, read-out: Plasma concentration, Mean",325 ng/mL
same,concentration at 2 h,"[1]; male, BALB/c nude, plasma, iv, 1.75 mg/kg, IV 1.75 mg/kg, 2 h, individual mice, read-out: Plasma concentration",362 ng/mL
same,concentration at 2 h,"[1]; male, BALB/c nude, plasma, iv, 1.75 mg/kg, IV 1.75 mg/kg, 2 h, mean of 3 mice, read-out: Plasma concentration, Mean",302 ng/mL
same,concentration at 4 h,"[1]; male, BALB/c nude, plasma, iv, 1.75 mg/kg, IV 1.75 mg/kg, 4 h, individual mice, read-out: Plasma concentration",190 ng/mL
same,concentration at 4 h,"[1]; male, BALB/c nude, plasma, iv, 1.75 mg/kg, IV 1.75 mg/kg, 4 h, mean of 3 mice, read-out: Plasma concentration, Mean",201 ng/mL
same,concentration at 8 h,"[1]; male, BALB/c nude, plasma, iv, 1.75 mg/kg, IV 1.75 mg/kg, 8 h, individual mice, read-out: Plasma concentration",50.2 ng/mL
same,concentration at 8 h,"[1]; male, BALB/c nude, plasma, iv, 1.75 mg/kg, IV 1.75 mg/kg, 8 h, mean of 3 mice, read-out: Plasma concentration, Mean",54.1 ng/mL
same,concentration at 24 h,"[1]; male, BALB/c nude, plasma, iv, 1.75 mg/kg, IV 1.75 mg/kg, 24 h, individual mice, read-out: Plasma concentration",0.937 ng/mL
same,concentration at 24 h,"[1]; male, BALB/c nude, plasma, iv, 1.75 mg/kg, IV 1.75 mg/kg, 24 h, mean of 3 mice, read-out: Plasma concentration, Mean",1.06 ng/mL
same,half-life,"[1]; male, BALB/c nude, plasma, po, 5 mg/kg, PO 5 mg/kg",77.4 ± 3.3 min
same,concentration at 0.25 h,"[1]; male, BALB/c nude, plasma, po, 5 mg/kg, PO 5 mg/kg, 0.25 h, mean of 3 mice, read-out: Plasma concentration, Mean",266 ng/mL
same,concentration at 0.5 h,"[1]; male, BALB/c nude, plasma, po, 5 mg/kg, PO 5 mg/kg, 0.5 h, mean of 3 mice, read-out: Plasma concentration, Mean",382 ng/mL
same,concentration at 1 h,"[1]; male, BALB/c nude, plasma, po, 5 mg/kg, PO 5 mg/kg, 1 h, mean of 3 mice, read-out: Plasma concentration, Mean",449 ng/mL
same,concentration at 2 h,"[1]; male, BALB/c nude, plasma, po, 5 mg/kg, PO 5 mg/kg, 2 h, individual mice, read-out: Plasma concentration",528 ng/mL
same,concentration at 2 h,"[1]; male, BALB/c nude, plasma, po, 5 mg/kg, PO 5 mg/kg, 2 h, mean of 3 mice, read-out: Plasma concentration, Mean",512 ng/mL
same,concentration at 4 h,"[1]; male, BALB/c nude, plasma, po, 5 mg/kg, PO 5 mg/kg, 4 h, individual mice, read-out: Plasma concentration",299 ng/mL
same,concentration at 4 h,"[1]; male, BALB/c nude, plasma, po, 5 mg/kg, PO 5 mg/kg, 4 h, mean of 3 mice, read-out: Plasma concentration, Mean",320 ng/mL
same,concentration at 6 h,"[1]; male, BALB/c nude, plasma, po, 5 mg/kg, PO 5 mg/kg, 6 h, mean of 3 mice",169 ng/mL
same,concentration at 8 h,"[1]; male, BALB/c nude, plasma, po, 5 mg/kg, PO 5 mg/kg, 8 h, mean of 3 mice, read-out: Plasma concentration, Mean",119 ng/mL
same,concentration at 24 h,"[1]; male, BALB/c nude, plasma, po, 5 mg/kg, PO 5 mg/kg, 24 h, individual mice, read-out: Plasma concentration",1.06 ng/mL
same,concentration at 24 h,"[1]; male, BALB/c nude, plasma, po, 5 mg/kg, PO 5 mg/kg, 24 h, mean of 3 mice, read-out: Plasma concentration, Mean",1.32 ng/mL
same,bioavailability,"[1]; male, BALB/c nude, plasma, po, 5 mg/kg, PO 5 mg/kg, read-out: F (%), oral bioavailability",70.8 ± 5.8%
same,effect on tumor growth,"[2]; A2780 ovarian tumors, oral once daily",strong tumor regression activity
same,Tumor volume,[2]; day 3,437 and 185 and 30 and 119 and 617
same,Tumor volume,[2]; day 6,183 and 151 and 27 and 79 and 405
same,Tumor volume,[2]; day 9,150 and 191 and 22 and 66 and 371
same,Tumor volume,[2]; day 12,110 and 138 and 20 and 56 and 270
same,Tumor volume,[2]; day 15,91 and 72 and 18 and 40 and 78
same,IC50,[3],5.4 µM
